Measured values published in patent EP4273147A1, “SUBSTITUTED SPIROLACTAMS, SALTS THEREOF AND THEIR USE AS HERBICIDALLY ACTIVE SUBSTANCES” (Bayer Aktiengesellschaft, priority 2022, dated 2023).

Experiments:
ECHCG [1] = experiment: Herbicidal pre-emergence action (Table A2); format: in vivo, Echinochloa crus-galli; conditions: visual grading after ca. 3 weeks
Summary of the method: (§1)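 Seeds covered with soil after sowing in sandy loam; every pot carried one monocotyledonous and one dicotyledonous weed species as a double sowing.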

LOLRI = experiment: Herbicidal pre-emergence action (Table A3); format: in vivo, Lolium rigidum; conditions: visual grading after ca. 3 weeks
Summary of the method: as §1

MATIN = experiment: Herbicidal pre-emergence action (Table A4); format: in vivo, Matricaria inodora; conditions: application rate 1280 g/ha; visual grading after ca. 3 weeks
Summary of the method: as §1

SETVI [2] = experiment: Herbicidal pre-emergence action (Table A5); format: in vivo, Setaria viridis; conditions: visual grading after ca. 3 weeks
Summary of the method: as §1

POAAN [3] = experiment: Herbicidal pre-emergence action (Table A7); format: in vivo, Poa annua; conditions: visual grading after ca. 3 weeks
Summary of the method: as §1

ECHCG [4] = experiment: Herbicidal post-emergence action (Table B3); format: in vivo, Echinochloa crus-galli; conditions: application rate 1280 g/ha; rated visually after about 3 weeks
Summary of the method: (§2)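 Plants grown from seed in a greenhouse are treated at the one-leaf stage, two to three weeks after sowing. They then stay under optimum growth conditions for about three weeks before herbicidal activity is scored visually on a 0–100% scale against untreated controls.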

POAAN [5] = experiment: Herbicidal post-emergence action (Table B7); format: in vivo, Poa annua; conditions: application rate 1280 g/ha
Summary of the method: as §2

ABUTH [6] = experiment: Herbicidal pre-emergence action, section C (Table C1); format: in vivo, Abutilon theophrasti; conditions: application rate 320 g/ha; visual grading after ca. 3 weeks
ECHCG [7] = experiment: Herbicidal pre-emergence action, section C (Table C6); format: in vivo, Echinochloa crus-galli; conditions: application rate 320 g/ha; visual grading after ca. 3 weeks
Text: Seeds of mono- and dicotyledonous weed plants and crop plants were sown, in plastic or organic planting pots, in sandy loam and covered with soil. The compounds according to the invention, formulated in the form of wettable powders (WP) or as emulsifiable concentrates (EC), were applied to the surface of the covering soil as aqueous suspension or emulsion, with the addition of 0.5% of an additive, at an application rate of 600 1 of water/ha (converted). Following treatment, the pots were placed in a greenhouse and kept under optimum growth conditions for the test plants.

SETVI [8] = experiment: Herbicidal pre-emergence action, section C (Table C10); format: in vivo, Setaria viridis; conditions: visual grading after ca. 3 weeks
ZEAMX [9] = experiment: Pre-emergence effects on crop plants (Table D1); format: in vivo, Zea mays; conditions: crop plant, visual grading after ca. 3 weeks
TRZAS [10] = experiment: Pre-emergence effects on crop plants (Table D2); format: in vivo, Triticum aestivum; conditions: crop plant, visual grading after ca. 3 weeks
Text: Seeds of mono- and dicotyledonous weed plants and crop plants were sown, in plastic or organic planting pots, in sandy loam and covered with soil. The compounds according to the invention, formulated in the form of wettable powders (WP) or as emulsifiable concentrates (EC), were applied to the surface of the covering soil as aqueous suspension or emulsion, with the addition of 0.5% of an additive, at an application rate of 600 1 of water/ha (converted).
Following treatment, the pots were placed in a greenhouse and kept under optimum growth conditions for the test plants.

GLXMA [11] = experiment: Pre-emergence effects on crop plants (Table D4); format: in vivo, Glycine max; conditions: crop plant; application rate 320 g/ha; visual grading after ca. 3 weeks
ECHCG [12] = experiment: Herbicidal post-emergence action, section E (Table E5); format: in vivo, Echinochloa crus-galli; conditions: application rate 320 g/ha; assessed visually after ca. 3 weeks
Text: (§3) 2 to 3 weeks after sowing, the test plants were sprayed in the single-leaf stage.

ZEAMX [13] = experiment: Post-emergence effects on crop plants (Table F1); format: in vivo, Zea mays; conditions: application rate 320 g/ha, crop plant ZEAMX
Text: as §3

TRZAS [14] = experiment: Post-emergence effects on crop plants (Table F2); format: in vivo, Triticum aestivum; conditions: application rate 320 g/ha, crop plant TRZAS
Text: as §3

ORYZA [15] = experiment: Post-emergence effects on crop plants (Table F3); format: in vivo, Oryza sativa; conditions: application rate 320 g/ha, crop plant ORYZA
Text: as §3

ORYZA [16] = experiment: Pre-emergence effects on crop plants (Table D3); conditions: crop plant, visual grading after ca. 3 weeks
STEME = experiment: Herbicidal pre-emergence action (Table A6); format: in vivo, Stellaria media; conditions: visual grading after ca. 3 weeks
Summary of the method: as §1

KCHSC = experiment: Herbicidal pre-emergence action (Table A10); format: in vivo, Kochia scoparia; conditions: application rate 1280 g/ha; visual grading after ca. 3 weeks
Summary of the method: as §1

DIGSA [17] = experiment: Herbicidal pre-emergence action (Table A12); format: in vivo, Digitaria sanguinalis; conditions: application rate 320 g/ha; visual grading after ca. 3 weeks
Summary of the method: as §1

ABUTH [18] = experiment: Herbicidal post-emergence action (Table B1); format: in vivo, Abutilon theophrasti; conditions: application rate 1280 g/ha; treated at one-leaf stage; rated visually after about 3 weeks vs untreated controls (100% = plants have died, 0% = like control plants)
Protocol: Seeds of mono- and dicotyledonous weed plants were placed in plastic pots in sandy loam soil (doubly sown with in each case one species of mono- or dicotyledonous weed plants per pot), covered with soil and cultivated in a greenhouse under controlled growth conditions. 2 to 3 weeks after sowing, the test plants were treated at the one-leaf stage. […] After the test plants had been kept in the greenhouse under optimum growth conditions for about 3 weeks, the activity of the preparations was rated visually in comparison to untreated controls. For example, 100% activity = the plants have died, 0% activity = like control plants.

DIGSA [19] = experiment: Herbicidal pre-emergence action, section C (Table C5); format: in vivo, Digitaria sanguinalis; conditions: application rate 320 g/ha; visual grading after ca. 3 weeks
BRSNW [20] = experiment: Pre-emergence effects on crop plants (Table D5); format: in vivo, Brassica napus; conditions: crop plant; application rate 320 g/ha; visual grading after ca. 3 weeks
VIOTR = experiment: Herbicidal post-emergence action, section E (Table E10); format: in vivo, Viola tricolor; conditions: application rate 320 g/ha; assessed visually after ca. 3 weeks
Text: as §3

GLXMA [21] = experiment: Post-emergence effects on crop plants (Table F4); format: in vivo, Glycine max; conditions: crop plant GLXMA
Text: as §3

BRSNW [22] = experiment: Post-emergence effects on crop plants (Table F5); format: in vivo, Brassica napus; conditions: application rate 320 g/ha, crop plant BRSNW
Text: as §3

AMARE = experiment: Herbicidal pre-emergence action (Table A8); format: in vivo, Amaranthus retroflexus; conditions: application rate 1280 g/ha; visual grading after ca. 3 weeks vs untreated controls (100% = plants have died off, 0% = as control plants)
Text: Seeds of mono- and dicotyledonous weed plants were sown in plastic pots (double sowings with one species of mono- and one species of dicotyledonous weed plants per pot), in sandy loam, and covered with soil.

VERPE = experiment: Herbicidal pre-emergence action (Table A11); format: in vivo, Veronica persica; conditions: application rate 1280 g/ha; visual grading after ca. 3 weeks
Summary of the method: as §1

pre-emergence activity against ZEAMX (ZEAMX [9]; application rate 80 g/ha) | pre-emergence activity against GLXMA (GLXMA [11]) | pre-emergence activity against TRZAS (TRZAS [10]; application rate 320 g/ha) | pre-emergence activity against BRSNW (BRSNW [20]) | Compound | pre-emergence activity against ECHCG (ECHCG [1]; application rate 320 g/ha) | pre-emergence activity against MATIN (MATIN) | pre-emergence activity against SETVI (SETVI [2]; application rate 320 g/ha) | pre-emergence activity against POAAN (POAAN [3]; application rate 1280 g/ha) | post-emergence activity against ECHCG (ECHCG [4]) | post-emergence activity against POAAN (POAAN [5]) | post-emergence activity against ZEAMX (ZEAMX [13]) | post-emergence activity against TRZAS (TRZAS [14]) | post-emergence activity against ORYZA (ORYZA [15]) | pre-emergence activity against ECHCG (ECHCG [1]; application rate 1280 g/ha) | pre-emergence activity against SETVI (SETVI [2]; application rate 1280 g/ha) | pre-emergence activity against STEME (STEME; application rate 320 g/ha) | pre-emergence activity against POAAN (POAAN [3]; application rate 320 g/ha) | pre-emergence activity against DIGSA (DIGSA [19]) | pre-emergence activity against SETVI (SETVI [8]; application rate 320 g/ha) | post-emergence activity against VIOTR (VIOTR) | further results
0% | 0% |  |  | O=C1N(Cc2ccccc2Br)CCCC12CCCN(Cc1c(F)cccc1F)C2=O (racemic) [I-048] | 100% | 90% | 100% | 90% | 90% | 90% | 20% | 20% | 0% |  |  |  |  |  |  |  | pre-emergence activity against LOLRI (LOLRI; application rate 320 g/ha): 100%; pre-emergence activity against ABUTH (ABUTH [6]): 90%; pre-emergence activity against ECHCG (ECHCG [7]): 100%; pre-emergence activity against SETVI (SETVI [8]; application rate 80 g/ha): 100%; pre-emergence activity against TRZAS (TRZAS [10]; application rate 80 g/ha): 0%; post-emergence activity against ECHCG (ECHCG [12]): 80%; pre-emergence activity against ORYZA (ORYZA [16]; application rate 80 g/ha): 0%
 |  |  |  | Cc1ccccc1CN1CCC2(CCCN(Cc3c(F)cccc3F)C2=O)C1=O (racemic) [I-058] |  | 90% |  |  | 90% | 90% |  |  |  | 100% | 90% | 90% | 100% |  |  |  | pre-emergence activity against LOLRI (LOLRI; application rate 1280 g/ha): 90%; pre-emergence activity against KCHSC (KCHSC): 90%; pre-emergence activity against DIGSA (DIGSA [17]): 90%; post-emergence activity against ABUTH (ABUTH [18]): 90%
 | 0% | 0% | 10% | O=C1N(Cc2c(F)cccc2Cl)CCCC12CCCN(Cc1c(F)cccc1Cl)C2=O (racemic) [I-063] |  |  | 100% |  |  |  | 10% | 0% | 0% | 100% |  | 100% | 100% | 100% | 100% | 80% | pre-emergence activity against ZEAMX (ZEAMX [9]; application rate 320 g/ha): 0%; post-emergence activity against GLXMA (GLXMA [21]; application rate 320 g/ha): 10%; post-emergence activity against BRSNW (BRSNW [22]): 10%; pre-emergence activity against ORYZA (ORYZA [16]; application rate 320 g/ha): 0%
0% | 10% | 10% | 10% | CC(c1ccccc1F)N1CCCC2(CCCN(C(C)c3ccccc3F)C2=O)C1=O (stereo not shown) [I-060] | 90% |  |  | 100% |  |  | 10% | 0% | 0% |  | 100% |  |  | 100% | 100% | 90% | pre-emergence activity against STEME (STEME; application rate 1280 g/ha): 90%; pre-emergence activity against AMARE (AMARE): 90%; pre-emergence activity against VERPE (VERPE): 90%; post-emergence activity against GLXMA (GLXMA [21]; application rate 80 g/ha): 0%; post-emergence activity against BRSNW (BRSNW [22]): 0%
